# Target: human APJ receptor (Homo sapiens (Human), UniProt P35414)
# Assay: [35S]GTPγS binding assay on membranes from CHO cells stably expressing human APJ receptor
# Type: biochemical
# Conditions: means of several independent experiments, read-out: Activity hAPJ SPA EC50 IP
# Description: The human APJ receptor was cloned by polymerase chain reaction and the gene encoding the receptor was subcloned in pFLAG-CMV™-3 expression vector (Sigma, Saint Louis, Mo. USA) in-house at Amgen. A GTPγS binding assay was performed on membranes prepared from CHO cells stably expressing human APJ receptor. The optimum experimental conditions for the concentrations of GDP, MgCl2, and NaCl in the assay buffer were initially determined. […] Incubation was at RT for 90 min and the microplate was read using a ViewLux™ ultra HTS Microplate Imager (PerkinElmer, Inc.). All the results presented are means of several independent experiments and analyzed by non-linear regression methods using the commercially available program Prism (GraphPad, San Diego, Calif.) providing the EC50 values detailed in Table 28.
# Sequence of human APJ receptor (P35414 whole entry): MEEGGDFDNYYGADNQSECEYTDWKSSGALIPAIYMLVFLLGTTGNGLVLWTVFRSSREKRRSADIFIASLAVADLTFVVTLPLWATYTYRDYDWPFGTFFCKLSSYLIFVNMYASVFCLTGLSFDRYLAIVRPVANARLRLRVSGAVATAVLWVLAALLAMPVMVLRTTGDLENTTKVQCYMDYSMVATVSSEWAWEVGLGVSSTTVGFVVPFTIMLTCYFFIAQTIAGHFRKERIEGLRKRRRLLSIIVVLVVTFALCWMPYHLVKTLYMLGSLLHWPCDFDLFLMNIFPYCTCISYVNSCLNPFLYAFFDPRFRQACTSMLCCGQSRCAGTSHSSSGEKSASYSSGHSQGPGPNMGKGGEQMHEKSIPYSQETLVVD
row,SMILES,EC50
1,"COc1ccc(OC)c(-c2nnc(NS(=O)(=O)[C@@H](C)[C@H](OC)c3ncc(C)cn3)n2-c2c(OC)cccc2OC)c1 [Example 79.0, (1R,2S)-N-(5-(2,5-dimethoxyphenyl)-4-(2,6-dimethoxyphenyl)-4H-1,2,4-triazol-3-yl)-1-methoxy-1-(5-methyl-2-pyrimidinyl)-2-propanesulfonamide]",3.8 nM
2,"CO[C@H](c1ncc(Cl)cn1)[C@H](C)S(=O)(=O)Nc1nnc(-c2ccccc2)n1C1CCOCC1 [Example 62.0, (1R,2S)-1-(5-chloro-2-pyrimidinyl)-1-methoxy-N-(5-phenyl-4-(tetrahydro-2H-pyran-4-yl)-4H-1,2,4-triazol-3-yl)-2-propanesulfonamide]",74 nM
3,COc1cccc(OC)c1-n1c(NS(=O)(=O)[C@@H](C)[C@H](OC)c2ncc(C)cn2)nnc1-c1cccc2ncccc12 [Example 90.0],540 nM
4,"Cc1cnc([C@H](OC(C)C)[C@H](C)S(=O)(=O)Nc2nnc(-c3ccccc3)n2-c2c(F)cccc2F)nc1 [Example 42.0, (1S,2S)-N-(4-(2,6-difluorophenyl)-5-phenyl-4H-1,2,4-triazol-3-yl)-1-(1-methylethoxy)-1-(5-methyl-2-pyrimidinyl)-2-propanesulfonamide]",3.4 nM
5,COCC(COC)n1c(NS(=O)(=O)[C@@H](C)[C@@H](OC(C)C)c2ncc(Cl)cn2)nnc1-c1ccccc1 [Example 123.0],7.2 nM
6,"COc1cccc(OC)c1-n1c(NS(=O)(=O)[C@H]2C[C@@H](OC(C)C)CN(c3ncc(F)cn3)C2)nnc1-c1ccccc1 (single isomer, unassigned) [Example 59.0, (3R,5S)-N-(4-(2,6-dimethoxyphenyl)-5-phenyl-4H-1,2,4-triazol-3-yl)-1-(5-fluoro-2-pyrimidinyl)-5-(1-methylethoxy)-3-piperidinesulfonamide or (3S,5R)-N-(4-(2,6-dimethoxyphenyl)-5-phenyl-4H-1,2,4-triazol-3-yl)-1-(5-fluoro-2-pyrimidinyl)-5-(1-methylethoxy)-3-piperidinesulfonamide]",86 nM
7,COc1cnc([C@@H](C)[C@H](C)S(=O)(=O)Nc2nnc(-c3ccccc3Br)n2C2COC(C)(C)OC2)nc1 [Example 128.0],910 nM
8,"COc1ncnc(OC)c1-n1c(NS(=O)(=O)[C@H]2CCCN(c3ncc(Cl)cn3)C2)nnc1-c1ccccc1 (single isomer, unassigned) [Example 31.0, (3S)-1-(5-chloro-2-pyrimidinyl)-N-(4-(4,6-dimethoxy-5-pyrimidinyl)-5-phenyl-4H-1,2,4-triazol-3-yl)-3-piperidinesulfonamide or (3R)-1-(5-chloro-2-pyrimidinyl)-N-(4-(4,6-dimethoxy-5-pyrimidinyl)-5-phenyl-4H-1,2,4-triazol-3-yl)-3-piperidinesulfonamide]",340 nM
9,"COc1cccc(OC)c1-n1c(NS(=O)(=O)[C@@H](C)[C@H](OC)c2ncc(C)cn2)nnc1-c1cccc(C#N)c1 [Example 86.0, (1R,2S)-N-(5-(3-cyanophenyl)-4-(2,6-dimethoxyphenyl)-4H-1,2,4-triazol-3-yl)-1-methoxy-1-(5-methyl-2-pyrimidinyl)-2-propanesulfonamide]",10.6 nM
10,"COc1ccnc(OC)c1-n1c(NS(=O)(=O)[C@@H](C)[C@H](C)c2cnc(C)cn2)nnc1-c1ccccc1 (single isomer, unassigned) [Example 54.0, (2S,3R,P)-N-(4-(2,4-dimethoxy-3-pyridinyl)-5-phenyl-4H-1,2,4-triazol-3-yl)-3-(5-methyl-2-pyrazinyl)-2-butanesulfonamide or (2S,3R,M)-N-(4-(2,4-dimethoxy-3-pyridinyl)-5-phenyl-4H-1,2,4-triazol-3-yl)-3-(5-methyl-2-pyrazinyl)-2-butanesulfonamide]",14 nM
11,COC[C@@H](C)n1c(NS(=O)(=O)[C@@H](C)[C@H](OC)c2ncc(Cl)cn2)nnc1-c1ccccc1 [Example 124.0],57 nM
12,"COc1cccc(OC)c1-n1c(NS(=O)(=O)[C@@H](C)[C@H](OC)c2ncc(C)cn2)nnc1-c1ccc(C(C)(C)C)cc1 [Example 65.0, (1R,2S)—N-(5-(4-tert-Butylphenyl)-4-(2,6-dimethoxyphenyl)-4H-1,2,4-triazol-3-yl)-1-methoxy-1-(5-methyl-2-pyrimidinyl)-2-propanesulfonamide]",230 nM
13,"C[C@H](c1ncc(C#N)cn1)[C@H](C)S(=O)(=O)Nc1nnc(-c2ccccc2)n1-c1c(F)cccc1F [Example 47.0, (2S,3R)-3-(5-cyano-2-pyrimidinyl)-N-(4-(2,6-difluorophenyl)-5-phenyl-4H-1,2,4-triazol-3-yl)-2-butanesulfonamide]",48 nM
14,COc1ncnc(OC)c1-n1c(NS(=O)(=O)[C@@H](C)[C@H](OC)c2ncc(Cl)cn2)nnc1-c1cccc2cn(C)nc12 [Example 94.0],2.9 nM
15,"COc1ncnc(OC)c1-n1c(NS(=O)(=O)[C@@H](C)[C@H](C)c2ncc(C)cn2)nnc1-c1ccccc1 [Example 5.0, (2S,3R)-N-(4-(4,6-dimethoxy-5-pyrimidinyl)-5-phenyl-4H-1,2,4-triazol-3-yl)-3-(5-methyl-2-pyrimidinyl)-2-butanesulfonamide]",2.3 nM
16,COCCn1c(NS(=O)(=O)[C@@H](C)[C@H](OC)c2ncc(Cl)cn2)nnc1-c1ccccc1 [Example 129.0],14 nM
17,"COc1ncnc(OC)c1-n1c(NS(=O)(=O)[C@@H](C)[C@H](C)c2cnc(C)cn2)nnc1-c1ccccc1 [Example 26.0, (2S,3R)-N-(4-(4,6-dimethoxy-5-pyrimidinyl)-5-phenyl-4H-1,2,4-triazol-3-yl)-3-(5-methyl-2-pyrazinyl)-2-butanesulfonamide]",5.2 nM
18,"COc1cccc(OC)c1-n1c(NS(=O)(=O)[C@@H](C)[C@H](OC)c2ncc(C)cn2)nnc1-c1ccc2c(c1)CCO2 [Example 80.0, (1R,2S)-N-(5-(2,3-dihydro-1-benzofuran-5-yl)-4-(2,6-dimethoxyphenyl)-4H-1,2,4-triazol-3-yl)-1-methoxy-1-(5-methyl-2-pyrimidinyl)-2-propanesulfonamide]",3.5 nM
19,CO[C@H](c1ncc(Cl)cn1)[C@H](C)S(=O)(=O)Nc1nnc(-c2ccccc2)n1C(C)C [Example 110.0],75 nM
20,"COc1cccc(OC)c1-n1c(NS(=O)(=O)[C@H]2C[C@@H](O)CN(c3ncc(F)cn3)C2)nnc1-c1ccccc1 (single isomer, unassigned) [Example 57.0, (3R,5S)-N-(4-(2,6-dimethoxyphenyl)-5-phenyl-4H-1,2,4-triazol-3-yl)-1-(5-fluoro-2-pyrimidinyl)-5-hydroxy-3-piperidinesulfonamide or (3S,5R)-N-(4-(2,6-dimethoxyphenyl)-5-phenyl-4H-1,2,4-triazol-3-yl)-1-(5-fluoro-2-pyrimidinyl)-5-hydroxy-3-piperidinesulfonamide]",1.4 nM
21,"COc1cccc(OC)c1-n1c(NS(=O)(=O)[C@@H](C)[C@H](OC)c2ncc(C)cn2)nnc1-c1cccc(Br)c1 [Example 81.0, (1R,2S)-N-(5-(3-bromophenyl)-4-(2,6-dimethoxyphenyl)-4H-1,2,4-triazol-3-yl)-1-methoxy-1-(5-methyl-2-pyrimidinyl)-2-propanesulfonamide]",0.27 nM
22,"COc1cccc(OC)c1-n1c(NS(=O)(=O)[C@@H](C)[C@H](OC)c2ncc(C)cn2)nnc1-c1cccc(Cl)c1 [Example 87.0, (1R,2S)-N-(5-(3-chlorophenyl)-4-(2,6-dimethoxyphenyl)-4H-1,2,4-triazol-3-yl)-1-methoxy-1-(5-methyl-2-pyrimidinyl)-2-propanesulfonamide]",0.56 nM

# Reference: US10906890B2, “Triazole phenyl compounds as agonists of the APJ receptor” (AMGEN INC., priority 2016, dated 2021)
